Reference: patent US10206944B2, “Chondroitin for use in medicine” (ALTERGON S.A., priority 2012, dated 2019)

How the values were obtained:
[1] = tested on: HT-1376 cells; assay: Flow cytometry of apoptotic and necrotic cells (Annexin V-FITC/PI); format: cell-based, human; set-up: unit not given here; conditions: 48 h, alone or combined
Method: Flow cytometry was used to evaluate the quantity of apoptotic or necrotic cells. Fluorescein isothiocyanate (Annexin V-FITC) combined with propidium iodide (PI) was used as marker; the apoptotic cells were Annexin V-FITC positive and PI negative, and the necrotic cells were Annexin V-FITC positive and PI positive. The cells were labelled by incubating them with Annexin V-FITC (Diagnostics MedSystems) and PI (Sigma) in a binding buffer (10 mM HEPES, pH 7.4, 150 mM NaCl, 5 mM KCl, 1 mM MgCl2, 2.5 mM CaCl2) for 10 min at ambient temperature, and then washing and resuspending the cell material in the same buffer. The apoptotic and necrotic cells were analysed by flow cytometry (FACScan, Becton-Dickinson), acquiring an average of 2×10^4 events per sample, with determinations in triplicate on three separate experiments.

[2] = tested on: human bladder carcinoma cell line HT-1376; assay: Inhibition of growth of bladder cancer cells and polysaccharide-antitumoral synergism; format: cell-based; conditions: HT-1376, after 72 h, product taken individually
Method: Human bladder cancer cell lines HT-1376 were used as system model, evaluating the ability of different combinations of GEM or MCC and C or CS to inhibit growth.
Human bladder carcinoma cell line HT-1376 (American Type Tissue Cultures Collection, Rockville, Md.) was cultured in DMEM supplemented with heat inactivated 10% foetal bovine serum (FBS), 20 mM 4,2-hydroxyethyl-1-piperazinyl-ethanesulphonic acid (HEPES), 100 U/mL penicillin, 100 µg/mL streptomycin, 1% w/v sodium L-glutamine and 1% w/v pyruvate. The cells were cultured in a humidified atmosphere comprising 95% air/5% CO2 at 37° C. For the study of synergism between C or CS and MMC or GEM in inhibiting the growth of HT-1376, the cells were seeded in 96-well plates at a density of 6*10^3 cells/well. After 24 hours' incubation at 37° C. the cells were treated with different concentrations of C or CS or GEM or MMC, and polysaccharide-antitumoral combinations thereof. The evaluation of polysaccharide-antitumoral synergism was based on analysis after 72 hours' treatment of the fraction curves of the surviving cells versus the concentration of antitumoral, conducted with the Calcusyn computer program (Biosoft, Ferguson, Mo.). The combination index values (CI) of <1, 1 and >1 indicate synergy, additivity and antagonism respectively in the polysaccharide-antitumoral interaction.

[3] = tested on: SOD-2; assay: Western blotting protein expression of SOD-2 in IL-1β-treated human chondrocytes; format: cell-based; conditions: densitometric analysis of Western blotting versus tubulin; control = 1
Method: (§1) In a standard experiment, 10^4 cells were seeded per well of a 24-well multiwell plate, and after 5 days, when confluency was reached, the cells were starved for 24 hours (incubation in DMEM with 0.5% FBS). The cells were then treated for 2 h with 1% w/v of chondroitin (C) or chondroitin sulphate (CS) (endotoxin content ≤0.1 EU/mg), in DMEM without FBS; the control was maintained under the same conditions, but without the addition of C or CS. IL-1 β at the concentration of 10 ng/mL was then added to the cultures. After 24 h hours' incubation the cells were recovered and the RNA was extracted from them with Trizol Reagent, as described in the kit manual (Life Technologies Ltd, Milan Italy). The gene expression values are confirmed by the protein expression data obtained in Western blotting by densitometric analysis of the GRP78 protein bands and SOD2 compared with the constitutive tubulin gene (Table 6)

[4] = tested on: GRP78; assay: Western blotting protein expression of GRP78 in IL-1β-treated human chondrocytes; format: cell-based; conditions: densitometric analysis of Western blotting versus tubulin; control = 1
Method: as §1

[5] = tested on: SOD-2; assay: Real-Time PCR gene expression of SOD-2 in IL-1β-treated human chondrocytes; format: cell-based; conditions: 2 h pre-treatment 1% w/v, IL-1β 10 ng/mL 24 h; untreated cells taken as 1
Source text: The objective of the study was to evaluate the effects of chondroitin or chondroitin sulphate on gene expression of GRP78 and SOD-2 in human chondrocytes, after treatment with the pro-inflammatory cytokine IL-1β.
Human chondrocytes extracted from nasal cartilage treated with IL-1β, a pro-inflammatory cytokine which acts as mediator in the activation of the biological mechanisms underlying the onset of OA, were used in the study. In particular, the modulation of two markers involved in the manifestation of the inflammatory state, chaperonin GRP78 and the enzyme superoxide dismutase (SOD-2), was evaluated.
as §1, with “The gene expression values are confirmed by the protein expression data obtained in Western blotting by densitometric analysis of the GRP78 protein bands and SOD2 compared with the constitutive tubulin gene (Table 6)” left out

[6] = tested on: volunteers suffering from severe impairment of the knee joint; assay: Viscosupplementation and cartilage repair in volunteers with knee joint impairment; format: in vivo, human
Method: The aim of the study was to evaluate the therapeutic potential of the hyaluronic acid-chondroitin combination (HA-C) in joint disease associated with damage to the cartilaginous component of the joint. The study was conducted on 30 volunteers suffering from severe impairment of the knee joint, with damage to the cartilaginous component, evident ongoing inflammatory symptoms, swelling and pain. The volunteers, aged between 25 and 45 years, of both sexes, were randomised into three groups of 10; the control group was treated with saline, the HA group with hyaluronic acid and the HA-C group with a mixture of hyaluronic acid and chondroitin. The viscosupplementation treatment was performed 3 times at 2-month intervals by injecting into the joint 2 mL of a sterile, pyrogen-free solution consisting of a saline solution (0.9% NaCl) for the control group, a 20 mg/mL solution of hyaluronic acid 1,200 KDa for the HA group and a 20 mg/mL solution of hyaluronic acid 1,200 KDa+20 mg/mL of chondroitin for the HA-C group. Before and at the end of the 6-month study the volunteers underwent an X-ray and MRI scan of the joint. Three orthopaedic surgeons independently evaluated the development of the pathological symptoms (pain, inflammatory state and swelling), and repair of cartilage damage, over time (before treatment, and after 3 and 6 months), on a scale of 1 to 5 (where 1 represents absence of healing, and 5 indicates total remission of the pathological symptoms and complete repair of the damage to the cartilage tissue).

[7] = tested on: volunteers suffering from dry eye; assay: Ophthalmic eyedrops in volunteers suffering from dry eye; format: in vivo, human
Method: Two ophthalmic preparations were compared: a conventional one based on hyaluronic acid and one based on chondroitin, both at the concentration of 3% w/v in NaCl saline solution at pH 7.4. The eyedrops were prepared in single-dose packaging sterilised in the autoclave. […] The volunteers, of both sexes, aged between 45 and 60 years, were randomised into two groups of 15, and treated with the two types of eyedrops. Under medical control the inflammatory state of the corneal surface was evaluated at the beginning and end of the treatment, and the evaluations of the treated patients relating to tolerability, duration of the wetting effect, and visual alteration after application, were recorded. A scale of 1 to 5 was used for the clinical evaluations and the patients' evaluations, where 5 represents optimum resolution of the pathological condition and its sequelae. […]

[8] = 5.7 μg/mL of C or CS and 1.7 μg/mL of MMC
[9] = 0.04 μg/mL of C or CS and 0.15 μg/mL of GEM

Q: Which results are given for `CO[C@@]12[C@H](COC(N)=O)C3=C(C(=O)C(C)=C(N)C3=O)N1C[C@@H]1N[C@@H]12` [MMC, mitomycin-C]?
A: Cell state: apoptotic advanced [1, 8]: 2 ± 1; Cell state: apoptotic early [1, 8]: 1 ± 1; Cell state: necrotic [1, 8]: 33 ± 1; Cell state: viable [1, 8]: 64 ± 5; IC50 (50% inhibition of growth) [2]: 18 μ/mL

Q: What does the source list for `Nc1ccn([C@@H]2O[C@H](CO)[C@@H](O)C2(F)F)c(=O)n1` [GEM, gemcitabine]?
A: Cell state: apoptotic advanced [1, 9]: 2 ± 1; Cell state: apoptotic early [1, 9]: 1 ± 1; Cell state: necrotic [1, 9]: 16 ± 3; Cell state: viable [1, 9]: 81 ± 3; IC50 ([2]; Homo sapiens, read-out: IC50 (50% inhibition of growth)): 0.5 µg/mL

Q: With “IL-1β: pro-inflammatory cytokine, 10 ng/mL, positive control” as the compound, how does the “Protein expression value of SOD-2” value [3] read?
A: 1.96 ± 0.20

Q: And the “Protein expression value of GRP78” value [4]?
A: 1.15 ± 0.15

Q: What about the “gene expression of SOD-2” value [5] of the same compound?
A: 22 ± 4

Q: How did the Cartilage repair ([6]; 0 months, scale of 1 to 5) turn out when “hyaluronic acid [HA, reference compound]” was run?
A: 1.0 ± 0.1

Q: And the Inflammation ([6]; 0 months, scale of 1 to 5)?
A: 1.3 ± 0.2

Q: And the Swelling ([6]; 0 months, scale of 1 to 5)?
A: 1.2 ± 0.1

Q: And the Pain ([6]; 0 months, scale of 1 to 5, 5 total remission)?
A: 1.6 ± 0.2

Q: What about the Cartilage repair ([6]; 3 months, scale of 1 to 5) of the same compound?
A: 1.5 ± 0.2

Q: And the Inflammation ([6]; 3 months, scale of 1 to 5)?
A: 3.1 ± 0.2

Q: And the Pain ([6]; 3 months, scale of 1 to 5)?
A: 3.1 ± 0.4

Q: What about the Swelling ([6]; 3 months, scale of 1 to 5) of the same compound?
A: 3.1 ± 0.3

Q: What about the Inflammation ([6]; 6 months, scale of 1 to 5) of the same compound?
A: 4.1 ± 0.5

Q: What about the Pain ([6]; 6 months, scale of 1 to 5) of the same compound?
A: 4.0 ± 0.3

Q: And the “Doctor: corneal inflammation” value ([7]; 0 days, 3% w/v eyedrops, scale of 1 to 5, 5 optimum)?
A: 1.0 ± 0.1

Q: What about the “Patient: absence of visual alteration” value ([7]; 10 days, scale of 1 to 5) of the same compound?
A: 3.5 ± 0.2

Q: And the “Patient: tolerability” value ([7]; 10 days, scale of 1 to 5)?
A: 3.8 ± 0.2

Q: And the “Patient: wetting effect” value ([7]; 10 days, scale of 1 to 5)?
A: 4.0 ± 0.2

Q: What about the “Patient: absence of visual alteration” value ([7]; 20 days, scale of 1 to 5) of the same compound?
A: 3.2 ± 0.1

Q: And the “Patient: tolerability” value ([7]; 20 days, scale of 1 to 5)?
A: 3.7 ± 0.3

Q: What about the “Patient: wetting effect” value ([7]; 20 days, scale of 1 to 5) of the same compound?
A: 4.1 ± 0.3

Q: What about the “Doctor: corneal inflammation” value ([7]; 30 days, 3% w/v eyedrops 4 times a day, scale of 1 to 5) of the same compound?
A: 3.5 ± 0.2

Q: What about the “Patient: absence of visual alteration” value ([7]; 30 days, scale of 1 to 5) of the same compound?
A: 3.6 ± 0.2

Q: And the “Patient: tolerability” value ([7]; 30 days, scale of 1 to 5)?
A: 3.9 ± 0.3

Q: And the “Patient: wetting effect” value ([7]; 30 days, scale of 1 to 5)?
A: 4.4 ± 0.3
